The record followed here is patent publication US8106055B2, “Substituted amide compounds” (Gruenenthal GmbH, priority 2007, dated 2012).

For the test, the target named is T1, serotonin (5-HT) reuptake (Rattus norvegicus, UniProt P31652).
T1 construct: synaptosomes are freshly isolated from areas of the rat brain; from tissue; host or cells: rat brain synaptosomes (P2 fraction)
In words: Inhibition of serotonin (5HT) reuptake in synaptosomes from rat brain. In kind it is biochemical. Conditions: test concentration of 10 μM; read-out: 5-HT (inhibition of reuptake of serotonin, % inhibition). The essentials:
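Compounds screened at 10 μM and reported as percent inhibition of serotonin uptake. Uptake measured in a freshly prepared P2 synaptosomal fraction from rat brain.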

T1 sequence (P31652 whole entry): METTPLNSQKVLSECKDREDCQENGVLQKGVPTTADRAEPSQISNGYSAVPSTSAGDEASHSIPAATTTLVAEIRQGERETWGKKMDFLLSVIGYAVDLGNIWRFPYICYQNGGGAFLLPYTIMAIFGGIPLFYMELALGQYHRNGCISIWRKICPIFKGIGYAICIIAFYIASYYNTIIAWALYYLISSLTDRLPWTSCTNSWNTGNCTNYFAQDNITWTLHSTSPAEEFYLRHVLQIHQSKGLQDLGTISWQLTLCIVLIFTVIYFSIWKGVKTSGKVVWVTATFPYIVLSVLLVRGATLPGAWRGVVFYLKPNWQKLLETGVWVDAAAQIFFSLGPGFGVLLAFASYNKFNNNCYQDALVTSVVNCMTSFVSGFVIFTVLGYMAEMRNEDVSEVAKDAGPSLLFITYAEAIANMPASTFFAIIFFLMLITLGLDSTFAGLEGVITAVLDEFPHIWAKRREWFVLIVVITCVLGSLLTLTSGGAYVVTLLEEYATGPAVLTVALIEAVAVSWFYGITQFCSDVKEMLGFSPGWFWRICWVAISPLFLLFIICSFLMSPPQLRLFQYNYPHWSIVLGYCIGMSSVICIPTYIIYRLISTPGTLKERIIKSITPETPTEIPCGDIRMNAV

With `CN(C)C(c1cccs1)C1CCC(CCNC(=O)COCCN(C)S(=O)(=O)c2ccc(Cl)cc2Cl)CC1` (stereo not drawn) [Example 9, 2-(2-(2,4-dichloro-N-methylphenylsulfonamido)ethoxy)-N-(2-(4-((dimethylamino) (thiophen-2-yl)methyl)cyclohexyl)ethyl)acetamide], the inhibition at 10 µM was 91%.

As for `CN(C)C(c1cccs1)C1CCC(NC(=O)COCCN(C)S(=O)(=O)c2ccc(F)cc2)CC1` (stereo not drawn) [Example 10, N-(4-((dimethylamino)(thiophen-2-yl)methyl)cyclohexyl)-2-(2-(4-fluoro-N-methylphenylsulfonamido)ethoxy)acetamide], the inhibition at 10 µM was 76%.

Take `CN(C)C(c1cccs1)C1CCC(NC(=O)COC2CCN(S(=O)(=O)c3cccc(C(F)(F)F)c3)C2)CC1` (stereo not drawn) [Example 11, N-(4-((dimethylamino)(thiophen-2-yl)methyl)cyclohexyl)-2-(1-(3-(trifluoromethyl)phenylsulfonyl)pyrrolidin-3-yloxy)acetamide]: the inhibition at 10 µM amounted to 86%.

For the compound `Cc1cc(C)c(S(=O)(=O)N2CCC(OCC(=O)NC3CCC(C(c4cccs4)N(C)C)CC3)C2)c(C)c1` (stereo not drawn) [Example 12, N-(4-((dimethylamino)(thiophen-2-yl)methyl)cyclohexyl)-2-(1-(mesitylsulfonyl)pyrrolidin-3-yloxy)acetamide], the inhibition at 10 µM amounted to 79%.

Turning to `CN(C)C(c1ccccc1)C1CCC(CNC(=O)COCCN(C)S(=O)(=O)c2c(Cl)cccc2Cl)CC1` (stereo not drawn) [Example 13, 2-(2-(2,6-dichloro-N-methylphenylsulfonamido)ethoxy)-N-((4-((dimethylamino)(phenyl)methyl)cyclohexyl)methyl)acetamide], the inhibition at 10 µM came out at 84%.

`CN(C)C(c1ccccc1)C1CCC(CNC(=O)COCCN(C)S(=O)(=O)c2c(Cl)cc(Cl)cc2Cl)CC1` (stereo not drawn) [Example 14, N-((4-((dimethylamino)(phenyl)methyl)cyclohexyl)methyl)-2-(2-(2,4,6-trichloro-N-methylphenylsulfonamido)ethoxy)acetamide]: the inhibition at 10 µM stood at 99%.

With `CN(C)C(c1ccccc1)C1CCC(CNC(=O)COCCN(Cc2ccccc2)S(=O)(=O)c2ccccc2)CC1` (stereo not drawn) [Example 15, 2-(2-(N-benzylphenylsulfonamido)ethoxy)-N-((4-((dimethylamino)(phenyl)methyl)cyclohexyl)methyl)acetamide], the inhibition at 10 µM was found to be 99%.

As for `CCN(CCOCC(=O)NCC1CCC(C(c2cccs2)N(C)C)CC1)S(=O)(=O)c1c(C)cc(OC)c(C)c1C` (stereo not drawn) [Example 16, N-((4-((dimethylamino)(thiophen-2-yl)methyl)cyclohexyl)methyl)-2-(2-(N-ethyl-4-methoxy-2,3,6-trimethylphenylsulfonamido)ethoxy)acetamide], the inhibition at 10 µM came out at 98%.

As for `CN(C)C(c1ccccc1)C1CCC(CNC(=O)COCC2CCCCN2S(=O)(=O)c2ccc(Cl)c(Cl)c2)CC1` (stereo not drawn) [Example 17, 2-((1-(3,4-dichlorophenylsulfonyl)piperidin-2-yl)methoxy)-N-((4-((dimethylamino)(phenyl)methyl)cyclohexyl)methyl)acetamide], the inhibition at 10 µM was found to be 93%.

As for `CN(C)C(c1ccccc1)C1CCC(CNC(=O)COCC2CCCN2S(=O)(=O)c2ccc(Cl)c(Cl)c2)CC1` (stereo not drawn) [Example 18, 2-((1-(3,4-dichlorophenylsulfonyl)pyrrolidin-2-yl)methoxy)-N-((4-((dimethylamino)(phenyl)methyl)cyclohexyl)methyl)acetamide], the inhibition at 10 µM turned out to be 95%.

In the case of `COc1ccc(S(=O)(=O)N2Cc3ccccc3CC2COCC(=O)NCC2CCC(C(c3ccccc3)N(C)C)CC2)cc1` (stereo not drawn) [Example 19, N-((4-((dimethylamino)(phenyl)methyl)cyclohexyl)methyl)-2-((2-(4-methoxyphenylsulfonyl)-1,2,3,4-tetrahydroisoquinolin-3-yl)methoxy)acetamide], the inhibition at 10 µM is 92%.

As to `COc1cc(C)c(S(=O)(=O)N2CCN(CCOCC(=O)NC3CCC(C(c4ccccc4)N(C)C)CC3)CC2)c(C)c1C` (stereo not drawn) [Example 20, N-(4-((dimethylamino)(phenyl)methyl)cyclohexyl)-2-(2-(4-(4-methoxy-2,3,6-trimethylphenylsulfonyl)piperazin-1-yl)ethoxy)acetamide], the inhibition at 10 µM worked out at 96%.

With `CN(C)C(c1cccs1)C1CCC(CCNC(=O)COC2CCN(S(=O)(=O)c3ccc(Cl)cc3Cl)C2)CC1` (stereo not drawn) [Example 21, 2-(1-(2,4-dichlorophenylsulfonyl)pyrrolidin-3-yloxy)-N-(2-(4-((dimethylamino)(thiophen-2-yl)methyl)cyclohexyl)ethyl)acetamide], the inhibition at 10 µM was 94%.

On to `COc1ccc(S(=O)(=O)N2CCC(OCC(=O)NCC3CCC(C(c4ccccc4)N(C)C)CC3)C2)cc1OC` (stereo not drawn) [Example 22, 2-(1-(3,4-dimethoxyphenylsulfonyl)pyrrolidin-3-yloxy)-N-((4-((dimethylamino)(phenyl)methyl)cyclohexyl)methyl)acetamide], for which the inhibition at 10 µM was 87%.

Consider `COc1ccc(S(=O)(=O)N2CCC(OCC(=O)NCC3CCC(C(c4cccs4)N(C)C)CC3)C2)cc1OC` (stereo not drawn) [Example 23, 2-(1-(3,4-dimethoxyphenylsulfonyl)pyrrolidin-3-yloxy)-N-((4-((dimethylamino)(thiophen-2-yl)methyl)cyclohexyl)methyl)acetamide], for which the inhibition at 10 µM was found to be 82%.

Take `CN(C)C(c1cccs1)C1CCC(CNC(=O)COC2CCN(S(=O)(=O)c3cccc(C(F)(F)F)c3)C2)CC1` (stereo not drawn) [Example 25, N-((4-((dimethylamino)(thiophen-2-yl)methyl)cyclohexyl)methyl)-2-(1-(3-(trifluoromethyl)phenylsulfonyl)pyrrolidin-3-yloxy)acetamide]: the inhibition at 10 µM was determined as 82%.

`Cc1cc(C)c(S(=O)(=O)N2CCC(OCC(=O)NCC3CCC(C(c4ccccc4)N(C)C)CC3)C2)c(C)c1` (stereo not drawn) [Example 26, N-((4-((dimethylamino)(phenyl)methyl)cyclohexyl)methyl)-2-(1-(mesitylsulfonyl)pyrrolidin-3-yloxy)acetamide]: the inhibition at 10 µM is 83%.

For the compound `Cc1cc(C)c(S(=O)(=O)N2CCC(OCC(=O)NCC3CCC(C(c4cccs4)N(C)C)CC3)C2)c(C)c1` (stereo not drawn) [Example 27, N-((4-((dimethylamino)(thiophen-2-yl)methyl)cyclohexyl)methyl)-2-(1-(mesitylsulfonyl)pyrrolidin-3-yloxy)acetamide], the inhibition at 10 µM was 84%.

As for `CN(C)C(c1cccs1)C1CCC(NC(=O)COC2CCN(S(=O)(=O)c3ccc(F)cc3)C2)CC1` (stereo not drawn) [Example 28, N-(4-((dimethylamino)(thiophen-2-yl)methyl)cyclohexyl)-2-(1-(4-fluorophenylsulfonyl)pyrrolidin-3-yloxy)acetamide], the inhibition at 10 µM came to 76%.

Regarding `COc1cc(C)c(S(=O)(=O)N2CCCC(OCC(=O)NCC3CCC(C(c4ccccc4)N(C)C)CC3)C2)c(C)c1C` (stereo not drawn) [Example 29, N-((4-((dimethylamino)(phenyl)methyl)cyclohexyl)methyl)-2-(1-(4-methoxy-2,3,6-trimethylphenylsulfonyl)piperidin-3-yloxy)acetamide], the inhibition at 10 µM was 93%.

`COc1ccc(S(=O)(=O)N2CCCCC2COCC(=O)NCCC2CCC(C(c3cccs3)N(C)C)CC2)cc1` (stereo not drawn) [Example 30, N-(2-(4-((dimethylamino)(thiophen-2-yl)methyl)cyclohexyl)ethyl)-2-((1-(4-methoxyphenylsulfonyl)piperidin-2-yl)methoxy)acetamide]: the inhibition at 10 µM was determined as 98%.
